Consider one compound from ChEMBL document CHEMBL5260850, “The exploration of aza-quinolines as hematopoietic prostaglandin D synthase (H-PGDS) inhibitors with low brain exposure” (Bioorg Med Chem, 2020).

A short description of series [1]: Dose normalized AUC in mouse at 3 mg/kg, po. In kind it is ADME, organism-based. Details: unit not given here. Conditions: in vivo.
Series [2] can be described thus: Toxicity in Wistar Han rat assessed as proximal tubular vacuolation and hyaline cast formation in kidney at 100 mg/kg/day, po administered QD for 7 days by microscopic analysis. It counts as organism-based. The settings on record: in vivo, 168 h, time 7 day.
Series [3] in a line: Free Cmax in eccentric contraction-induced muscle injury C57BL/6N mouse model administered orally 10 mins prior to unilateral eccentric contraction and QD for 16 days thereafter. In kind it is ADME. Conditions: in vivo, po, 384 h, time 16 day.

For `CC(C)(O)[C@H]1CC[C@H](NC(=O)c2cnc3nc(C4CC4)ccc3c2)CC1`, in series [1], the AUC/dose is 1320. Also, in series [2], the Activity result is “Toxic”. The same compound registered a fCmax in series [3] of 370 ng/mL.
